Results reported in patent US5466687A, “Arylidene-1-azacycloalkanes and arylalkyl-1-azacyclo-alkanes, their salts, medicaments containing these compounds and their use, and processes for their preparation” (priority 1992, dated 1995).
Converted amounts (≈) assume the structure as drawn.

What was measured:
[1] = test system: Normal human epidermal keratinocytes (NHEK); assay: Inhibition of cell proliferation of keratinocytes; assay type: cell-based; details: 48 hours, read-out: percentage decrease in cell numbers
Procedure: V. Inhibition of cell proliferation
Normal human epidermal keratinocytes (NHEK) are cultured under sterile conditions in keratinocyte growth medium (Gibco) in a humidified, 5% CO2 -containing atmosphere. Cells of the third passage are inoculated at a density of 12,000 cells/ml.
After 24 hours, the test substance is added to the medium and the number of cells is determined after a further 48 hours. The results were calculated in comparison to a control and are indicated as the percentage decrease in cell numbers.
The proliferation-inhibiting action of the above mentioned compound A was tested in comparison to simvastatin at concentrations of 10^-6 to 10^-10 mol/l.

[2] = test system: normolipaemic golden hamster; assay: Lipid reduction in the normolipaemic golden hamster; assay type: in vivo; details: 12 days, vs control group
Procedure: III. Lipid reduction in the normolipaemic golden hamster
Male golden hamsters are fed ad lib with a cholesterol-free hamster diet for 12 days. The substance to be tested is admixed to the feed in concentrations of 0.01 to 0.10%. At the end of the experimental period, the total cholesterol, the HDL fraction and also the VLDL+LDL fraction are determined by standard methods, a control group fed without test substance being used for comparison.
The hypolipidaemic activity of the above mentioned compound A was tested.

[3] = test system: 2,3-epoxysqualene-lanosterol cyclase; assay: In vivo effect in the rat after oral administration: 2,3-epoxysqualene level in plasma; set-up: species or system rat (male Wistar); details: 5 hours after administration
Procedure: II. Measurement of the in vivo effect in the rat after oral administration
The inhibition of the enzyme 2,3-epoxysqualene-lanosterol cyclase causes an increase in the 2,3-epoxy-squalene level in the liver and plasma. Therefore, the amount of 2,3-epoxysqualene formed therefore serves as a direct measure of the effectiveness in the whole animal. The determination is carried out by the following method:
The test substance suspended in 1.5% strength aqueous methylcellulose is administered via stomach tube to male Wistar rats (160-190 g body weight). 5 hours after administration, blood is obtained retroorbitally from the venous plexus. Plasma is extracted by the method of Bligh and Dyer (Canad. J. Biochem. Physiol. 37, 912, [1959]), purified by means of a precolumn and then analyzed by means of HPLC. The peaks obtained are identified and quantified by means of calibration substances. An internal standard is used to check the reproducibility of the results.
The investigations were carried out using concentrations of 0.1 and 1.0 mg/kg. The results for the above mentioned substances A to M are compiled in the following Table by way of example: […]

[4] = test system: normolipaemic golden hamster; assay: Determination of the lithogenic index in the normolipaemic golden hamster; assay type: in vivo; details: 20 days
Procedure: IV. Determination of the lithogenic index in the normolipaemic golden hamster
The lithogenic index is a measure of susceptibility to gallstone formation and is defined as the […] in mol %. It was determined by the method of Carey and Small, described in J. Clin. Investig. 61, 998-1026 [1978]. The higher the lithogenic index, the higher the probability of gallstone formation. The determination of the lithogenic index was carried out as follows:
Male golden hamsters are fed ad lib with a cholesterol-free hamster diet for 20 days. The substance to be tested is admixed to the feed in concentrations of 0.01 to 0.1%. At the end of the experimental period, total cholesterol, the HDL fraction and also the VLDL+LDL fraction in the serum, and the bile acids, the cholesterol and the phospholipids in the bile are determined by standard methods.
The compound A described above was tested. The percentage decrease in the lithogenic index was determined relative to the control.

[5] = test system: human hepatoma cells (HEP-G2); assay: Inhibition of 14C-acetate incorporation in digitonin-precipitatable steroids in HEP-G2 cells; assay type: cell-based; details: Homo sapiens; for percent change in 14C-acetate incorporation into sterols at 0.1 µM: HepG2, 10^-7 mol/l; for percent change in 14C-acetate incorporation into sterols at 0.01 µM: HepG2, 10^-8 mol/l
Procedure: I. Measurement of the inhibition of ^14 C-acetate incorporation in digitonin-precipitatable steroids:
After 3 days of culture, human hepatoma cells (HEP-G2) are stimulated for 16 hours in cholesterol-free medium. The substances to be tested (dissolved in dimethyl sulphoxide, final concentration 0.1%) are added during this stimulation phase. After the addition of 200 μmol/l of 2-^14 C-acetate, the mixture is then reincubated at 37° C. for a further 2 hours.
The cells are detached and the sterol esters are hydrolyzed and, after extraction, sterols are precipitated using digitonin. The ^14 C-acetate incorporated into digitonin-precipitatable sterols is determined by scintillation measurement.
The investigation of the inhibitory action was carried out at test concentrations of 10^-7 mol/l and 10^-8 mol/l. The test results of the following compounds A to AG of the general formula I are indicated at these test concentrations by way of example: […]

[6] = Toxic effects in the mouse after oral administration; assay type: in vivo; details: oral 100 mg/kg, once daily for 4 days
Excerpt: The compounds A to I appeared to be non-toxic at the curative dose.

[7] = test system: Trichophyton mentagrophytes ATCC 9129; assay: Fungistatic activity, serial dilution test; assay type: cell-based; details: ATCC9129, 2 to 4 days at 26° C.
Procedure: (§1) VI. Determination of fungistatic activity The fungistatic activity was determined by means of the serial dilution test (microtitre system). Sabouraud broth was used as the nutrient medium. The inoculum was approximately 10^4 to 10^5 CFU/ml (CFU=colony-forming units); the incubation time was 2 to 4 days at 26° C. The minimum inhibitory concentration (MIC), i.e. the lowest concentration which no longer allowed visible growth, and the lowest concentration at which a decrease in growth of the test microorganism occurred in comparison with a control were determined. The above mentioned compound I was tested.

Rhodotorula rubra 49 = assay: Fungistatic activity, serial dilution test; assay type: cell-based; details: 2 to 4 days at 26° C.
Procedure: as §1

[8] = test system: Sacc. carlsbergensis ATCC 9080; assay: Fungistatic activity, serial dilution test; assay type: cell-based; details: Saccharomyces pastorianus, ATCC9080, 2 to 4 days at 26° C.
Procedure: as §1

[9] = test system: Penicillium notatum CBS 19746; assay: Fungistatic activity, serial dilution test; assay type: cell-based; details: Penicillium chrysogenum, CBS19746, 2 to 4 days at 26° C.
Procedure: as §1

[10] = test system: Aspergillus niger ATCC 16404; assay: Fungistatic activity, serial dilution test; assay type: cell-based; details: ATCC16404, 2 to 4 days at 26° C.
Procedure: as §1

[11] = test system: Candida albicans ATCC 10231; assay: Fungistatic activity, serial dilution test; assay type: cell-based; details: ATCC10231, 2 to 4 days at 26° C.
Procedure: as §1

smooth muscle cell = details: Cardiovasc. Drugs Ther. 5, Suppl. 3, 354 [1991]; cited from earlier work
laying hens = details: FASEB Journal 4, A 533 [1990]; cited from earlier work
[12] = cited from earlier work
[13] = J. Biol. Chemistry 265, 18075-18078 [1990]; cited from earlier work
[14] = read-out: Decrease in growth (lowest concentration)
[15] = Gut 31, 348-350 [1990], Z. Gastroenterol. 29, 242-245 [1991]

## O=C(c1ccc(Cl)cc1)N1CCC(=Cc2ccc(C3=NCCO3)cc2)CC1 [A, 1-(4-chlorobenzoyl)-4-[4-(2-oxazolin-2-yl)benzylidene]piperidine]
[1]; 10^-6 mol/l
  inhibition at 1 µM: 72%
[1]; 10^-7 mol/l
  inhibition at 0.1 µM: 73%
[1]; 10^-8 mol/l
  inhibition at 0.01 µM: 70%
[1]; 10^-9 mol/l
  inhibition at 0.001 µM: 48%
[1]; 10^-10 mol/l
  inhibition at 0.0001 µM: 16%
[2]; 0.01% in feed
  HDL: -12.4%
  Total Cholesterol: -19.8%
  VLDL + LDL: -25.0%
[2]; 0.03% in feed
  HDL: -17.5%
  Total Cholesterol: -26.3%
  VLDL + LDL: -31.2%
[2]; 0.10% in feed
  HDL: -13.9%
  Total Cholesterol: -25.8%
  VLDL + LDL: -36.6%
[3]; 0.1 mg/kg oral
  2,3-Epoxysqualene concentration in plasma (rat): 0.71 µg/mL
[3]; 1.0 mg/kg oral
  2,3-Epoxysqualene concentration in plasma (rat): 3.75 µg/mL
[4]; 0.01% in feed
  Lithogenic Index (percentage decrease relative to control): -24%
[4]; 0.03% in feed, n.s. = not significant
  Lithogenic Index (percentage decrease relative to control): -10%
[4]; 0.1% in feed
  Lithogenic Index (percentage decrease relative to control): -28%
[5]
  percent change in 14C-acetate incorporation into sterols at 0.1 µM: -81%
  percent change in 14C-acetate incorporation into sterols at 0.01 µM: -58%
[6]
  toxic effects in the mouse: no toxic effects

## O=C(c1ccc(Cl)cc1)N1CCC(Cc2ccc(C3=NCCO3)cc2)CC1 [I, 1-(4-chlorobenzoyl)-4-[4-(2-oxazolin-2-yl)benzyl]piperidine]
[7]
  MIC: 512 µg/mL (≈ 1340 µM)
Rhodotorula rubra 49
  MIC: 128 µg/mL (≈ 334 µM)
Rhodotorula rubra 49; [14]
  minimal effective concentration: 32 µg/mL
[8]
  MIC: 128 µg/mL (≈ 334 µM)
[8]; [14]
  minimal effective concentration: 64 µg/mL
[9]
  MIC: 128 µg/mL (≈ 334 µM)
[9]; [14]
  minimal effective concentration: 64 µg/mL
[10]
  MIC: > 1020 µg/mL
[10]; [14]
  minimal effective concentration: 128 µg/mL
[11]
  MIC: 128 µg/mL (≈ 334 µM)
[11]; [14]
  minimal effective concentration: 64 µg/mL
[3]; 0.1 mg/kg oral
  2,3-Epoxysqualene concentration in plasma (rat): 3.41 µg/mL
[3]; 1.0 mg/kg oral
  2,3-Epoxysqualene concentration in plasma (rat): 8.41 µg/mL
[5]
  percent change in 14C-acetate incorporation into sterols at 0.1 µM: -89%
  percent change in 14C-acetate incorporation into sterols at 0.01 µM: -75%
[6]
  toxic effects in the mouse: no toxic effects

## CC[C@H](C)C(=O)O[C@H]1C[C@@H](C)C=C2C=C[C@H](C)[C@H](CC[C@@H]3C[C@@H](O)CC(=O)O3)[C@H]21 [lovastatin]
Smooth muscle cell
  smooth muscle cell proliferation: inhibition of smooth muscle cell proliferation
Laying hens
  cholesterol content of eggs: lowering of the cholesterol content of eggs
[12]; [15]
  cholesterol concentration in the bile / lithogenic index: can cause a reduction of the cholesterol concentration in the bile
  gallstone formation: do not lead to increased gallstone formation
[12]; in particular in combination with ursodeoxycholic acid, Gastroenterology 102, A 319 [1992]
  dissolution of gallstones: effectiveness

## CCN(CC)CCOc1ccc(C(O)(Cc2ccc(Cl)cc2)c2ccc(C)cc2)cc1 (centres unmarked) [triparanol]
[13]
  toxic effects leading to withdrawal from the market: formation of cataracts, ichthyosis and alopecia
